According to US6916905B2, “Dmt-Tic di-and tri-peptidic derivatives and related compositions and methods of use” (The United States of America as represented by the …, priority 2000, dated 2005):
Read-outs that look alike come from different tables or passages of the source. Non-standard residues stand in square brackets, D forms with d. Residues, ends and D or L forms follow the SMILES beside them. *: point of attachment. Dmt = Cc1cc(O)cc(C)c1C[C@H](N)C(=O)O; Tic = O=C(O)[C@@H]1Cc2ccccc2CN1; NHtBu = CC(C)(C)N*

Key:
[1] = target: T1, δ-opioid receptors (Rattus norvegicus, UniProt P33533); assay: Rat brain synaptosome (P2) binding, agonist [3H]DPDPE (Example 47); conditions: for δ/μ selectivity, in words: from Table II binding; for Agonist K1μ/Kiδ: selectivity, Kiδ from agonist radioligand [3H]DPDPE
T1 construct: assayed with a rat brain synaptosomal preparation (P2); from tissue; host or cells: rat brain P2 synaptosomes
T1 sequence (P33533 whole entry): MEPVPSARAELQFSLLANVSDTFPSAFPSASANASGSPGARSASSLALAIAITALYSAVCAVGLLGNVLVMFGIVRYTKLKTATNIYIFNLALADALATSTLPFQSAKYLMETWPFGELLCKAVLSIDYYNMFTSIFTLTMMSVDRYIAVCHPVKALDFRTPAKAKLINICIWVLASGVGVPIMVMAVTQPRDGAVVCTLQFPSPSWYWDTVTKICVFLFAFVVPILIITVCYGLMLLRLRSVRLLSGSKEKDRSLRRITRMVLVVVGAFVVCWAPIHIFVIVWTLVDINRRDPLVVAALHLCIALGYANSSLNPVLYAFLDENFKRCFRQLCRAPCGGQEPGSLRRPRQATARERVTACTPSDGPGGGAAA
Protocol: Briefly, the agonists [^3H]DPDPE (30-60 Ci/mmol, NEN-DuPont) and [^3H]DAGO (30-60 Ci/mmol, Amersham) were used to label δ and μ sites, respectively, under saturation binding conditions (2 hrs at 22° C.). Excess unlabeled peptide (2 μM) established non-specific binding levels and the labeled membranes were rapidly filtered on Whatman GF/C glass fibre filters, thoroughly washed, dried and measured for radioactivity using CytoScint (ICN, Irvine, Calif.). […] The affinity constants (Ki) were calculated according to Cheng and Prusoff (Biochem. Pharmacol. 22: 3099-3108 (1973)).

[2] = target: T1, δ-opioid receptors; assay: Rat brain synaptosome (P2) binding, δ antagonist [3H]N,N(CH3)2-Dmt-Tic-OH (Example 47); conditions: for Antagonist K1μ/Kiδ: selectivity, Kiδ from antagonist radioligand [3H]N,N(CH3)2-Dmt-Tic-OH
[3] = target: T2, μ-opioid receptors (Rattus norvegicus, UniProt P33535); assay: Rat brain synaptosome (P2) binding, [3H]DAGO (Example 47)
T2 construct: assayed with a rat brain synaptosomal preparation (P2); from tissue; host or cells: rat brain P2 synaptosomes
T2 sequence (P33535 whole entry): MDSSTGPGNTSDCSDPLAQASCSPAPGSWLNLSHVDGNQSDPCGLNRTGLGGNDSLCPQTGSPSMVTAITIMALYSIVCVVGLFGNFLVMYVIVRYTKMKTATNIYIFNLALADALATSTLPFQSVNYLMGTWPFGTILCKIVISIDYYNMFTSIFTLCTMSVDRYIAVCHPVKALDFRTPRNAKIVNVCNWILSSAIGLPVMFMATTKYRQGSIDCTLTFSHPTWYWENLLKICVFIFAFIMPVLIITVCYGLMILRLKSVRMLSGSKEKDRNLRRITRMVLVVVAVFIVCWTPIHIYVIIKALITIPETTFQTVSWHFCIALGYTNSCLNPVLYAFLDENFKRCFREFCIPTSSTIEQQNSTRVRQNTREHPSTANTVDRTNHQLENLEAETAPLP

[4] = target: T3, δ receptors (Mus musculus, UniProt P32300)
T3 sequence (P32300 whole entry): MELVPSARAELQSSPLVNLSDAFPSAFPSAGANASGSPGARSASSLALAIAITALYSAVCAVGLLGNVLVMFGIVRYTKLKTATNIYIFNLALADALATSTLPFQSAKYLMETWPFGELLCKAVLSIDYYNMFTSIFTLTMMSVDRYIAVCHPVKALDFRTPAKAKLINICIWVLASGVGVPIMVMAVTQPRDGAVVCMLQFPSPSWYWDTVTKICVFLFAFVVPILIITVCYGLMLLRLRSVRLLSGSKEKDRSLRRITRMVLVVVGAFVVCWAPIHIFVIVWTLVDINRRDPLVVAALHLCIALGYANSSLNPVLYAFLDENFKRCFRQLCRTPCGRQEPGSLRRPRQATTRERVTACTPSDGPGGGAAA
Protocol: (§1) The functional bioactivity of the present inventive compounds was assessed using standard functional bioassays of δ and μ activity in MVD and GPI (Salvadori et al. (1995), supra; and Salvadori et al., J. Med. Chem. 36: 3748-3756 (1993)). […] Dose-response curves were obtained (Salvadori et al. (1995), supra) for both tissues. […] Data were derived from at least four independent tissue samples and dose-response curves from which the pA2 values were determined (Salvadori et al. (1997), supra) according to Arunlakshana and Schild (Br. J. Pharmacol. 14: 48-58 (1959)).

[5] = target: μ receptors (Cavia porcellus, UniProt P97266); assay: Guinea pig ileum (GPI) functional bioassay (Example 48)
Chain of μ receptors (P97266 whole entry, looked up): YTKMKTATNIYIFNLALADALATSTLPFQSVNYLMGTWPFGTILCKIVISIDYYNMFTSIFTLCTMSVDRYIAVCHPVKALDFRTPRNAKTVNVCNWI
Protocol: as §1

[6] = target: hMDR-1 (Homo sapiens, UniProt P08183); assay: Calcein AM assay for Pgp in hMDR-1 transfected G-185 fibroblasts (Example 49); conditions: rank within amide series
Chain of hMDR-1 (P08183 whole entry): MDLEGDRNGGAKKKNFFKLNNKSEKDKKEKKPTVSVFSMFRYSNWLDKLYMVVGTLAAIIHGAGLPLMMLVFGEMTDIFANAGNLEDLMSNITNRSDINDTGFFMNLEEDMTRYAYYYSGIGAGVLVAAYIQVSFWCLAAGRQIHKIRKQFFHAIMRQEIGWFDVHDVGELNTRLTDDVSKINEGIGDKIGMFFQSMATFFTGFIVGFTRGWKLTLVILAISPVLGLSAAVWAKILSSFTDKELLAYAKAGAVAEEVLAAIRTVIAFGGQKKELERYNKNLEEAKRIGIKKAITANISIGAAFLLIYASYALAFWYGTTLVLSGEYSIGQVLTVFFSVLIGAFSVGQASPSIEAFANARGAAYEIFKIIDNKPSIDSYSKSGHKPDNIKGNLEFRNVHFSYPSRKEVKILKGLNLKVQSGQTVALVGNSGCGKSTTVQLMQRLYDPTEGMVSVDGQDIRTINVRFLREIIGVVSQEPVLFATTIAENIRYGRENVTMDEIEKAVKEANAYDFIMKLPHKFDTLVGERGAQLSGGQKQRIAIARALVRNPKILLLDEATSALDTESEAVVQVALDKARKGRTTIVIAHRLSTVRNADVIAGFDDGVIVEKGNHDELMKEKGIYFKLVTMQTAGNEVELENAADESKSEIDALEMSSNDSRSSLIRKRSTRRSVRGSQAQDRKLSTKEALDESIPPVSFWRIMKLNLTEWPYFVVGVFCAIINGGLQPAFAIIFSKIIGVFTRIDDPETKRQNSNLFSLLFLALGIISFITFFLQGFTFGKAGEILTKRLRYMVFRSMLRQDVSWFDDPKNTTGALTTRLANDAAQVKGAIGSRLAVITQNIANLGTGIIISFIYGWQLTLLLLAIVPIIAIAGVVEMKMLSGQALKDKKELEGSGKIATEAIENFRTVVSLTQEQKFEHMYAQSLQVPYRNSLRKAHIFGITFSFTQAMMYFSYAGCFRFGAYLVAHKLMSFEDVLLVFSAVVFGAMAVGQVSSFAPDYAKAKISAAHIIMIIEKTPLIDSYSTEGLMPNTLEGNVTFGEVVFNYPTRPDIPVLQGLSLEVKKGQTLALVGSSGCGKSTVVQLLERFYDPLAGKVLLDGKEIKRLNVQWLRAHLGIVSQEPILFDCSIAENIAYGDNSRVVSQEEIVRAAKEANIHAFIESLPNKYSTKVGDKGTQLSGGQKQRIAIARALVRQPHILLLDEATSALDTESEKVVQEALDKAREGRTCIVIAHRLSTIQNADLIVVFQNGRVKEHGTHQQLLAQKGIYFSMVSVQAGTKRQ
Protocol: Stably transfected G-185 fibroblasts containing hMDR-1 and NIH 3T3 cell lines were grown to confluent monolayers in DMEM containing 4.5 g glucose/1, 10% fetal calf serum, L-glutamine, penicillin (50 units/ml), streptomycin (50 μg/ml) and 1 mM sodium pyruvate in 5% CO2 at 37° C. G-185 cells were maintained in […] colchicine.
The assay for Pgp is based on the diffusion of non-fluorescent calcein AM across the cell membrane. Calcein AM is then hydrolyzed and accumulates as the fluorescent calcein. In transfected cells expressing excess hMDR-1, Pgp extrudes calcein AM from the cell before hydrolysis occurs; inhibition of hMDR-1 results in the accumulation of intracellular calcein. Transfected G-185 cells and the NIH 3T3 cells were analyzed in triplicate using seven graded dosages of verapamil or the opioid peptides in 96-well plates. Cells (2.5×10^6/well) were incubated in 100 μl culture medium for 15 min at 37° C. and 50 μl of 1 μM calcein AM in PBS, plus 50 μl of verapamil or one of the present inventive compounds in PBS, or 100 μl of PBS alone (control) were added. Cells were mixed and incubated for 15 min at 37° C., then centrifuged for 5 min at 2,000×g, and then washed three times in 200 μl PBS. Cell pellets were resuspended in 200 μl PBS and transferred to white Microfluor Plates (Nunc, Copenhagen, Denmark) in order to measure calcein-specific fluorescence (494 nm absorption; 517 nm emission). Internal controls were carried out with each experiment using verapamil and PBS in order to compare the consistency between cell preparations. Means±SE (error bars) were determined and plotted using Prism™ (GraphPad, San Diego, Calif.).

[7] = target: T3, δ receptors; assay: MVD functional pharmacological bioassay (Example 75); set-up: A single MVD was suspended in 4 ml modified Kreb's solution; from tissue; host or cells: mouse vas deferens
[8] = target: T4, δ receptors (Rattus norvegicus, UniProt P33533); assay: Radio-receptor competition assay, rat brain synaptosomes, [3H]DPDPE (Example 74); format: binding
T4 construct: assayed with a rat brain synaptosomal preparation (P2); from tissue; host or cells: rat brain P2 synaptosomes
T4 sequence (P33533 whole entry): as the sequence (P33533 whole entry) above
Protocol: After 120 min incubation at room temperature (23-24° C.), the samples were rapidly filtered through Whatman GF/C glass fiber filers and washed three times with 2 ml ice-cold 0.05 M Tris, pH 7.4-7.5, containing 0.1% BSA. Presoaking filters in 0.1% polyethylenimine is only required in assays with peptides carrying an overall positive charge, such as dynorphin or nociceptin (Guerrini et al., J. Med. Chem., 40: 1789-1793 (1997)). Non-specific binding was determined using 2 μM unlabeled DPDPE or DAGO for δ or μ assays, respectively. The Ki data, determined according to Cheng and Prusoff (Cheng et al., Biochem. Pharmacol., 22: 3099-3108 (1973)), represent the means±SE from 3 or more independent assays using at least 3 different synaptosome preparations and testing the analogues with 5-8 graded dosages over 2-3 orders of magnitude in concentration.

[9] = MVD Ke(nM), δ antagonism, Ke = antilog of pA2
[10] = rat brain synaptosomes (P2), mean ± SEM, n in parentheses, read-out: Kiδ(nM) [^3H]DPDPE
[11] = rat brain synaptosomes (P2), δ antagonist radioligand, mean ± SEM, n in parentheses, read-out: Kiδ(nM) [^3H]N,N(CH3)2-Dmt-Tic-OH
[12] = rat brain synaptosomes (P2), mean ± SEM, n in parentheses, read-out: Kiμ (nM) [^3H]DAGO
[13] = MVD pA2 (range), δ antagonism against deltorphin C, mean (range)
[14] = δ antagonism, Ke = antilog of pA2

Compound | Agonist K1μ/Kiδ [1] | Antagonist K1μ/Kiδ [2] | EC50 [5] | order of inhibition of hMDR-1 [6] | Ki [3, 12] | bioactivity on MVD (δ), in words [4] | Kb [4, 13] | MVD Ke [4, 14] | other results
Cc1cc(O)cc(C)c1C[C@H](N)C(=O)N1Cc2ccccc2C[C@H]1C(=O)NC12CC3CC(CC(C3)C1)C2 [Compound 11, H-Dmt-Tic-NH-1-adamantane] | 3 | 0.8 | 36 nM | (compound 11)>H-Dmt-Tic-Ala-NH-1-adamantane (compound 21) |  |  |  |  | Ki [1]: 0.26 ± 0.05 nM; δ/μ selectivity, in words [1]: weakly μ selective; Ki [2]: 1.01 ± 0.26 nM; Ki [3]: 0.76 ± 0.05 nM; EC50 [4]: 870 nM; Kb [4, 9]: > 10000 nM; bioactivity on GPI (μ), in words [5]: moderate μ agonism
Cc1cc(O)cc(C)c1C[C@H](N)C(=O)N1Cc2ccccc2C[C@H]1C(=O)N[C@@H](C)C(=O)NC(C)(C)C [Compound 20, H-Dmt-Tic-Ala-NH-tBu] (H-[Dmt]-[Tic]-Ala-NHtBu; N-terminus and C-terminus assumed) | 61 | 48 | > 10000 nM | (compound 20)>H-Dmt-Tic-NH-tBu (compound 9) | 4.03 ± 0.21 nM | highest δ-antagonist functional bioactivities | 0.692 nM | 0.69 nM | Ki [1, 10]: 0.066 ± 0.01 nM; Ki [2, 11]: 0.08 ± 0.02 nM; Kb [5]: 174 nM; GPI Ke ([5]; μ antagonism): 0.17 µM
Cc1cc(O)cc(C)c1C[C@H](N)C(=O)N1Cc2ccccc2C[C@H]1C(=O)NCc1nc2ccccc2[nH]1 [Compound 24, H-Dmt-Tic-NH—CH2-Bid] |  |  |  |  |  |  |  |  | δ activity on MVD, in words [7]: potent δ-agonist activity; MVD, antagonist activity (pA2) N,N(CH3)2-Dmt-Tic-OH ([7]; pA2 of N,N(CH3)2-Dmt-Tic-OH against the listed δ agonist): 9.70; MVD, antagonist activity (pA2) naloxone ([7]; pA2 of naloxone against the listed δ agonist): 7.45; Functional Bioactivity MVD (pEC50) ([7]; δ agonism): 9.90
Cc1cc(O)cc(C)c1C[C@H](N)C(=O)N1Cc2ccccc2C[C@H]1C(=O)NCC(=O)NCc1nc2ccccc2[nH]1 [Compound 26, H-Dmt-Tic-Gly-NH—CH2-Bid] |  |  |  |  |  |  |  |  | δ/μ selectivity, in words ([8]; from Table IV binding): essentially non-selective; μ/δ ([8]; selectivity Kiμ/Kiδ): 353; δ activity on MVD, in words [7]: potent δ antagonist activity
Cc1cc(O)cc(C)c1C[C@H](N)C(=O)N1Cc2ccccc2C[C@H]1C(=O)N[C@@H](C)C(=O)NC12CC3CC(CC(C3)C1)C2 [Compound 21, H-Dmt-Tic-Ala-NH-1-adamantane] |  |  | 1000 nM | (compound 21)>>N,N(Me)2-Dmt-Tic-OH (inactive) |  | highest δ-antagonist functional bioactivities | 0.513 nM | 0.51 nM | Ki [3]: 2.52 ± 0.56 nM
Cc1cc(O)cc(C)c1C[C@H](N)C(=O)N1Cc2ccccc2C[C@H]1C(=O)NC(C)(C)C [Compound 9, H-Dmt-Tic-NH-tBu] (H-[Dmt]-[Tic]-NHtBu) | 14 | 6 | 1040 nM | (compound 9)>>H-Dmt-Tic-NHMe (compound 7) (inactive) | 5.96 ± 0.82 nM | highest δ-antagonist functional bioactivities | 5.75 nM |  | δ/μ selectivity, in words [1]: essentially nonselective; Ki [1, 10]: 0.43 ± 0.07 nM; Ki [2, 11]: 0.93 ± 0.15 nM; Kb [4, 9]: 1.74 nM
Cc1cc(O)cc(C)c1C[C@@H](C(=O)N1Cc2ccccc2C[C@H]1C(=O)NC(C)(C)C)N(C)C [Compound 14, N,N(Me)2-Dmt-Tic-NH-tBu] |  |  | > 10000 nM | (compound 14)>H-Dmt-Tic-Ala-NH-tBu (compound 20) | 226 ± 21 nM | modest δ antagonism | 14.1 nM | 14.1 nM | Kb [5]: 300 nM; bioactivity on GPI (μ), in words [5]: weak μ antagonism
